From article PMC5534107, “Sensitization of ASIC3 by proteinase-activated receptor 2 signaling contributes to acidosis-induced nociception” (Journal of Neuroinflammation, 2017)

Assays:
[1] = system: heteromeric ASIC1b+3 channels expressed with PAR2 in CHO cells; assay: Whole-cell patch clamp, heteromeric ASIC1b+3 channels expressed with PAR2 in CHO cells; type: cell-based, Chinese hamster; settings: PAR2-AP 10^−5 M for 1 min; I pH 6.6; ASIC3:other subunit 1:3; n = 8
Experimental: (§1) ASIC3, ASIC1a, ASIC1b, ASIC2b, and PAR2 complementary DNAs (cDNAs) were used for heterologous expression in CHO cells as described previously (Wang et al., 2013). In brief, CHO cells were cultured at 37 °C in a humidified atmosphere of 5% CO2 and […] and passaged twice a week. Transient transfection of CHO cells was performed using HilyMax liposome transfection reagent (Dojindo Laboratories). CHO cells were maintained in F-12 Nutrient Mixture (added 1.176 g of NaHCO3/L medium) supplemented with 10% fetal bovine serum and 1% gluta-MAXTM-1 (100×; Invitrogen). When ASIC3 and PAR2 cDNAs were co-transfected, the ratio was kept at 1:1. All plasmids used contained, in addition to the desired ASIC3 cDNA, the coding sequence for enhanced green fluorescent protein to aid identification of transfected cells. Electrophysiological measurements were performed 24–48 h after transfection.
(§2) Whole-cell patch clamp and voltage clamp recordings were carried out at room temperature (22–25 °C) using a MultiClamp-700B amplifier and Digidata-1440A A/D converter (Axon Instruments, CA, USA). […]
(§3) Drugs purchased from Sigma and used in the experiments include hydrochloric acid, 2-furoyl-LIGRLO-NH2 (a PAR2-activating peptide (PAR2-AP)), trypsin, FSLLRY-NH2, APETx2, and capsazepine. […] The application pipette tips were positioned ∼30 μm away from the recorded neurons. […]

[2] = system: heteromeric ASIC2b+3 channels expressed with PAR2 in CHO cells; assay: Whole-cell patch clamp, heteromeric ASIC2b+3 channels expressed with PAR2 in CHO cells; type: cell-based, Chinese hamster; settings: PAR2-AP 10^−5 M for 1 min; I pH 6.6; ASIC3:other subunit 1:3; n = 8
Experimental: as §1, §2, §3

rats = assay: Nociceptive behavior (flinches) induced by intraplantar acetic acid in rats; type: in vivo, rat; settings: capsazepine 100 μM, n = 10
Experimental: Rats were placed in a 30 × 30 × 30 cm Plexiglas chamber and allowed to habituate for at least 30 min before nociceptive behavior experiments. A blind experiment was carried out. Separate groups of rats were coded and pretreated with 20 μl capsazepine (100 μM) together with vehicle and different dosages of PAR2-AP, FSLLRY-NH2, or APETx2 in the ipsilateral hind paw before injection of acetic acid. […] And nociceptive behavior (that is, number of flinches) was counted over a 5-min period starting immediately after the injection.
We finally ascertain whether PAR2-AP facilitates pain-related behaviors through interacting with ASIC3 in vivo. Acetic acid (0.6%) was injected into the right hind paws of rats and measured the number of flinches that the animals spent licking and/or lifting the injected paw. Intraplantar injection of acetic acid elicits an intense flinch/shaking response which mainly occurred during 0–5 min after injection of acetic acid. […] However, the low dose (1 μg) of PAR2-AP had no effect on the acidosis-induced nocifensive behaviors (Bonferroni’s post hoc test, P > 0.1, n = 10). In addition, the exacerbating effect of 10 μg PAR2-AP on acidosis-induced nocifensive behaviors was blocked by co-administration of 20 μg FSLLRY-NH2, a selective PAR2 antagonist (Bonferroni’s post hoc test, P < 0.01, compared with 10 μg PAR2-AP alone, n = 10; Fig. 6a).

2-furoyl-LIGRLO-NH2 [PAR2-AP]
increase of peak current of heteromeric ASIC1b+3 channels [1]: 55.2 ± 5.9% | increase of peak current of heteromeric ASIC2b+3 channels [2]: 68.1 ± 7.3% | effect on acidosis-induced nocifensive behaviors (number of flinches), low dose (rats; PAR2-AP 1 μg intraplantar, 5 min before acetic acid 0.6%, 20 μl, flinches over 5 min, P > 0.1): no effect | acetic acid-induced number of flinches vs acetic acid alone, medium dose (rats; PAR2-AP 3 μg intraplantar, P < 0.05): significantly greater | acetic acid-induced number of flinches vs acetic acid alone, high dose (rats; PAR2-AP 10 μg intraplantar, P < 0.01): significantly greater
